Read-outs that look alike come from different tables or passages of the source.
Assays:
[1] = system: 3D7-strain P. falciparum asexual parasites; test: P. falciparum asexual growth inhibition assay (Pf GIA); assay type: cell-based, Plasmodium falciparum; conditions: dose response confirmation; read-out: Pf asexual growth inhibition assays IC50
Method in brief: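 LDH readout: absorbance at 650 nm after 10 min at room temperature with lactate/APAD/NBT/diaphorase mix on thawed plates. Cultures (0.25% parasitemia, 2% hematocrit) were treated 72 h at 37°C in low-oxygen gas. Inhibition was normalised to 50 μM chloroquine and DMSO; n=3 biological replicates.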

HepG2 cells = test: HepG2 cytotoxicity assay; conditions: for IC50: read-out: HepG2 cytotoxicity assay IC50, dose response confirmation; for Pb ODA (this manuscript) HepG2 cytoxicity: HepG2 cytotoxicity listed with the Pb ODA data set (this manuscript)
Method in brief: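 HepG2 cells, 2,500 per well in MEM with 10% FBS and 1% NEAA, exposed to compounds for 48 h at 37°C, 5% CO2. Viability read by fluorescence; percent inhibition relative to 50 μM doxorubicin and DMSO controls.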

[2] = system: P. berghei ookinete development; conditions: for % inhibition, Replicate A / % inhibition, Replicate B: primary screen at 1 μM
[3] = unified HepG2 value across the three screens
[4] = read-out: Pb Ookinete development assay IC50, dose response confirmation
[5] = read-out: Pb ODA IC50, this manuscript
[6] = read-out: Pb ODA (this manuscript) IC50, P. berghei ookinete development assay, this manuscript
[7] = HepG2 values of the three screens unified

CN(C)c1ccc(C=CC(=O)NC(=O)c2ccccc2O)cc1 [TCMDC-125391]
IC50 [1]: 123 nM | IC50 (HepG2 cells): 100 µM | Unified cytotox (HepG2 cells; [3]): 100.00 µM | Is compound selective in assay? Pb ODA active? ([2]; 1: YES, 0: NO): 1 (1: YES) | % inhibition, Replicate A [2]: 87.61% | % inhibition, Replicate B [2]: 62.62% | IC50 [2, 4]: 210 nM

O=C(c1ccco1)N1CCN(c2ccc([N+](=O)[O-])c(NC3CC3)c2)CC1 [TCMDC-125397]
IC50 [1]: < 0.2 nM | IC50 (HepG2 cells): 2.04 µM | Unified cytotox (HepG2 cells; [3]): 2.04 µM | Is compound selective in assay? Pb ODA active? ([2]; 1: YES, 0: NO): 0 (0: NO) | % inhibition, Replicate A [2]: 106.00% | % inhibition, Replicate B [2]: 90.44% | IC50 [2, 5]: 1160 nM | IC50 [2, 4]: 1160 nM

CC(Oc1ccc(NC(=O)c2cccs2)cc1)C(=O)c1ccc(Cl)cc1 (stereo not shown) [TCMDC-125438]
IC50 [1]: 512 nM | Pb ODA (this manuscript) HepG2 cytoxicity (HepG2 cells): 100.00 µM | IC50 (HepG2 cells): 100 µM | Is compound selective in assay? Pb ODA active? [2]: 1 (key: 1: YES; 0: NO) | % inhibition, Replicate A [2]: 52.47% | % inhibition, Replicate B [2]: 58.23% | IC50 [2, 6]: 1010 nM | IC50 [2, 4]: 1010 nM

Cc1ccc(Cn2c(N3CCC(C(=O)NCc4ccccn4)CC3)nc3ccccc32)cc1 [TCMDC-125442]
IC50 [1]: 469 nM | IC50 (HepG2 cells): 69.2 µM | Unified cytotox (HepG2 cells; [3]): 69.18 µM | Is compound selective in assay? Pb ODA active? ([2]; 1: YES, 0: NO): 1 (1: YES) | % inhibition, Replicate A [2]: 48.51% | % inhibition, Replicate B [2]: 58.27% | IC50 [2, 5]: 1180 nM | IC50 [2, 4]: 1180 nM

COc1ccc(Cl)cc1NC(=O)CN(C)C(=O)c1cnn(-c2ccccc2)n1 [TCMDC-125457]
IC50 [1]: 222 nM | IC50 (HepG2 cells): 100 µM | Unified cytotox (HepG2 cells; [3]): 100.00 µM | Is compound selective in assay? Pb ODA active? ([2]; 1: YES, 0: NO): 1 (1: YES) | % inhibition, Replicate A [2]: 53.54% | % inhibition, Replicate B [2]: 37.16% | IC50 [2, 5]: 5110 nM | IC50 [2, 4]: 5110 nM

O=C1C(c2ccccc2)=C(Nc2cccc(OC(F)(F)C(F)F)c2)c2ccccc21 [TCMDC-125498]
IC50 [1]: 68 nM | Pb ODA (this manuscript) HepG2 cytoxicity (HepG2 cells): 100.00 µM | IC50 (HepG2 cells): 100 µM | Is compound selective in assay? Pb ODA active? [2]: 1 (key: 1: YES; 0: NO) | % inhibition, Replicate A [2]: 29.02% | % inhibition, Replicate B [2]: 52.36% | IC50 [2, 6]: 1380 nM | IC50 [2, 4]: 1380 nM

COc1ccc(NC2=C(c3ccccc3)C(=O)c3ccccc32)cn1 [TCMDC-125501]
IC50 [1]: 385 nM | Pb ODA (this manuscript) HepG2 cytoxicity (HepG2 cells): 100.00 µM | IC50 (HepG2 cells): 100 µM | Is compound selective in assay? Pb ODA active? [2]: 1 (key: 1: YES; 0: NO) | % inhibition, Replicate A [2]: 44.98% | % inhibition, Replicate B [2]: 57.32% | IC50 [2, 6]: 1980 nM | IC50 [2, 4]: 1980 nM

CCN(CC)CCCNc1c2ccccc2nc2ccccc12.Cl [TCMDC-125517]
IC50 [1]: 50 nM | HepG2 cytoxicity (Pb ODA, this manuscript) (HepG2 cells): 18.20 µM | Unified cytotox (HepG2 cells; [7]): 18.20 µM | IC50 (HepG2 cells): 18.2 µM | Is compound selective in assay? Pb ODA active? ([2]; 1: YES, 0: NO): 1 (1: YES) | % inhibition, Replicate A [2]: 20.29% | % inhibition, Replicate B [2]: 90.60% | IC50 [2, 5]: 1610 nM | IC50 [2, 4]: 1610 nM

Cc1c2ccncc2c(C)c2c1[nH]c1ccccc12 [TCMDC-125546]
IC50 [1]: 1190 nM | IC50 (HepG2 cells): 15.1 µM | Unified cytotox (HepG2 cells; [3]): 15.14 µM | Is compound selective in assay? Pb ODA active? ([2]; 1: YES, 0: NO): 0 (0: NO) | % inhibition, Replicate A [2]: 41.57% | % inhibition, Replicate B [2]: 50.63% | IC50 [2, 5]: 5270 nM | IC50 [2, 4]: 5260 nM

CCn1cc(C(=O)O)c(=O)c2cc(F)c(N3CCN(S(=O)(=O)c4ccc(N)cc4)CC3)cc21 [TCMDC-125809]
IC50 [1]: 1690 nM | IC50 (HepG2 cells): 100 µM | Unified cytotox (HepG2 cells; [3]): 100.00 µM | Is compound selective in assay? Pb ODA active? ([2]; 1: YES, 0: NO): 1 (1: YES) | % inhibition, Replicate A [2]: 58.34% | % inhibition, Replicate B [2]: 60.71% | IC50 [2, 5]: 980 nM | IC50 [2, 4]: 978 nM

O=C(NC(=O)c1ccccc1O)c1ccccc1O [TCMDC-125868]
IC50 [1]: 2030 nM | IC50 (HepG2 cells): 100 µM | Unified cytotox (HepG2 cells; [3]): 100.00 µM | Is compound selective in assay? Pb ODA active? ([2]; 1: YES, 0: NO): 1 (1: YES) | % inhibition, Replicate A [2]: 63.28% | % inhibition, Replicate B [2]: 34.36% | IC50 [2, 4]: 460 nM

COc1ccc2nccc(NC(=O)C3CCC(NCc4cnc(SC)c([N+](=O)[O-])c4)CC3)c2n1.Cl (stereo not shown) [TCMDC-131238]
IC50 [1]: 676 nM | Pb ODA (this manuscript) HepG2 cytoxicity (HepG2 cells): 14.62 µM | IC50 (HepG2 cells): 14.6 µM | Is compound selective in assay? Pb ODA active? [2]: 0 (key: 1: YES; 0: NO) | % inhibition, Replicate A [2]: 77.59% | % inhibition, Replicate B [2]: 35.00% | IC50 [2, 6]: 2410 nM | IC50 [2, 4]: 2410 nM

Br.CCCc1cc(C)ccc1OCCCON1C(N)=NC(N)=NC1(C)C [TCMDC-131320]
IC50 [1]: < 0.2 nM | HepG2 cytoxicity (Pb ODA, this manuscript) (HepG2 cells): 0.0017 µM | Unified cytotox (HepG2 cells; [7]): 0.0017 µM | IC50 (HepG2 cells): 0.0017 µM | Is compound selective in assay? Pb ODA active? ([2]; 1: YES, 0: NO): 0 (0: NO) | % inhibition, Replicate A [2]: 73.15% | % inhibition, Replicate B [2]: 59.20% | IC50 [2, 5]: 5110 nM | IC50 [2, 4]: 5110 nM

C=CCc1cc(OC)ccc1OCCCOc1c(C)nc(N)nc1N.Cl [TCMDC-131358]
IC50 [1]: < 0.2 nM | IC50 (HepG2 cells): 0.26 µM | Unified cytotox (HepG2 cells; [3]): 0.26 µM | Is compound selective in assay? Pb ODA active? ([2]; 1: YES, 0: NO): 0 (0: NO) | % inhibition, Replicate A [2]: 71.96% | % inhibition, Replicate B [2]: 22.95% | IC50 [2, 5]: 2360 nM | IC50 [2, 4]: 2360 nM

CCN(CC)c1ccccc1CNC(=O)c1cc(Cl)c(N)cc1OC [TCMDC-131416]
IC50 [1]: < 0.2 nM | IC50 (HepG2 cells): 41.7 µM | Unified cytotox (HepG2 cells; [3]): 41.69 µM | Is compound selective in assay? Pb ODA active? ([2]; 1: YES, 0: NO): 1 (1: YES) | % inhibition, Replicate A [2]: 54.83% | % inhibition, Replicate B [2]: 54.70% | IC50 [2, 5]: 1320 nM | IC50 [2, 4]: 1320 nM

CCOC(=O)c1c(-c2ccccc2)nc2c(sc3ccccc32)c1O [TCMDC-131540]
IC50 [1]: 3870 nM | IC50 (HepG2 cells): 100 µM | Unified cytotox (HepG2 cells; [3]): 100.00 µM | Is compound selective in assay? Pb ODA active? ([2]; 1: YES, 0: NO): 1 (1: YES) | % inhibition, Replicate A [2]: 101.19% | % inhibition, Replicate B [2]: 85.53% | IC50 [2, 5]: 1310 nM | IC50 [2, 4]: 1310 nM

CC(ON1C(N)=NC(N)=NC1(C)C)c1ccccc1 (stereo not shown) [TCMDC-131596]
IC50 [1]: 14 nM | HepG2 cytoxicity (Pb ODA, this manuscript) (HepG2 cells): 0.0372 µM | Unified cytotox (HepG2 cells; [7]): 0.0372 µM | IC50 (HepG2 cells): 0.0372 µM | Is compound selective in assay? Pb ODA active? ([2]; 1: YES, 0: NO): 0 (0: NO) | % inhibition, Replicate A [2]: 78.80% | % inhibition, Replicate B [2]: 47.07% | IC50 [2, 4]: 5190 nM

Br.Cc1ccc(OCCCON2C(=N)N=C(N)NC2(C)C)cc1C [TCMDC-131650]
IC50 [1]: < 0.2 nM | Pb ODA (this manuscript) HepG2 cytoxicity (HepG2 cells): 0.001 µM | IC50 (HepG2 cells): 0.001 µM | Is compound selective in assay? Pb ODA active? [2]: 0 (key: 1: YES; 0: NO) | % inhibition, Replicate A [2]: 43.37% | % inhibition, Replicate B [2]: 66.90% | IC50 [2, 6]: 4960 nM | IC50 [2, 4]: 4960 nM

Br.CC1(C)N=C(N)N=C(N)N1OCCc1cccc2ccccc12 [TCMDC-131663]
IC50 [1]: 24 nM | Pb ODA (this manuscript) HepG2 cytoxicity (HepG2 cells): 0.001 µM | IC50 (HepG2 cells): 0.001 µM | Is compound selective in assay? Pb ODA active? [2]: 0 (key: 1: YES; 0: NO) | % inhibition, Replicate A [2]: 57.64% | % inhibition, Replicate B [2]: 56.80% | IC50 [2, 6]: 2710 nM | IC50 [2, 4]: 2710 nM

Br.CC1(C)NC(N)=NC(=N)N1OCCSc1ccccc1 [TCMDC-131670]
IC50 [1]: < 0.2 nM | Pb ODA (this manuscript) HepG2 cytoxicity (HepG2 cells): 0.001 µM | IC50 (HepG2 cells): 0.001 µM | Is compound selective in assay? Pb ODA active? [2]: 0 (key: 1: YES; 0: NO) | % inhibition, Replicate A [2]: 44.97% | % inhibition, Replicate B [2]: 56.76% | IC50 [2, 6]: 2860 nM | IC50 [2, 4]: 2860 nM
